Test results reported in patent US9738902B2, “Modified PYR/PYL receptors activated by ligands” (priority 2013, dated 2017).

Key:
Test in all cases: Y2H Pocket Library Screen (HAB1, X-gal)
Type in all cases: cell-based
PYR1 K59R A160I = molecular target: T1, PYR1 K59R A160I (Arabidopsis thaliana, UniProt O49686, A160I/K59R)
T1 construct: expressed in transfected cells; host or cells: S. cerevisiae Y190
In short: (§1)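 Mutant PYR1 variants are screened in yeast two-hybrid against HAB1, with 100 μM compound in –Leu/–Trp dextrose agar; responsiveness is judged by X-gal staining after 2 days at 30° C.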

PYR1 K59R A160N = molecular target: T2, PYR1 K59R A160N (Arabidopsis thaliana, UniProt O49686, A160N/K59R)
T2 construct: expressed in transfected cells; host or cells: S. cerevisiae Y190
In short: as §1

PYR1 K59R A160T = molecular target: T3, PYR1 K59R A160T (Arabidopsis thaliana, UniProt O49686, A160T/K59R)
T3 construct: expressed in transfected cells; host or cells: S. cerevisiae Y190
In short: as §1

PYR1 K59R A160V = molecular target: T4, PYR1 K59R A160V (Arabidopsis thaliana, UniProt O49686, A160V/K59R)
T4 construct: expressed in transfected cells; host or cells: S. cerevisiae Y190
T4 sequence (O49686 whole entry K59R/A160V): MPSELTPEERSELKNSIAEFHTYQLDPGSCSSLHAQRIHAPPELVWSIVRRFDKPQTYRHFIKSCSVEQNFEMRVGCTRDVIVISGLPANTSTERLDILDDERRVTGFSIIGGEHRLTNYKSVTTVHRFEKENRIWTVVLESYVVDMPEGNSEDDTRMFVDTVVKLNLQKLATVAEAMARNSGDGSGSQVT
T4 sequence (Q9CAJ0 23-511 partner): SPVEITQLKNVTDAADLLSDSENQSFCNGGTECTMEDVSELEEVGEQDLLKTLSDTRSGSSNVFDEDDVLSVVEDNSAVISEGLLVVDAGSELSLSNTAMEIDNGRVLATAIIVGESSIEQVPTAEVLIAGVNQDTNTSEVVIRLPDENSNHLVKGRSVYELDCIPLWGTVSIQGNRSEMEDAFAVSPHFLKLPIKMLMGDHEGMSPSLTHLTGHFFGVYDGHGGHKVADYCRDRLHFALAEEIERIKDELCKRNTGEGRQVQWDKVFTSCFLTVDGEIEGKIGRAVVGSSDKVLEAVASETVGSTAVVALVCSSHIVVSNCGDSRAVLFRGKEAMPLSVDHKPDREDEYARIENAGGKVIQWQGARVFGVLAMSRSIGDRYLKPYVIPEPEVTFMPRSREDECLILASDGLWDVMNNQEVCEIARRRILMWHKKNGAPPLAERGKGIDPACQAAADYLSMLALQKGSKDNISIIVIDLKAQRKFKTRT
In short: as §1

PYR1 K59R E141L = molecular target: T5, PYR1 K59R E141L (Arabidopsis thaliana, UniProt O49686, E141L/K59R)
T5 construct: expressed in transfected cells; host or cells: S. cerevisiae Y190 two-hybrid reporter strain
In short: as §1

PYR1 K59R E141Y = molecular target: T6, PYR1 K59R E141Y (Arabidopsis thaliana, UniProt O49686, E141Y/K59R)
T6 construct: expressed in transfected cells; host or cells: S. cerevisiae Y190 two-hybrid reporter strain
In short: as §1

PYR1 K59R I110M = molecular target: T7, PYR1 K59R I110M (Arabidopsis thaliana, UniProt O49686, I110M/K59R)
T7 construct: expressed in transfected cells; host or cells: S. cerevisiae Y190 two-hybrid reporter strain
In short: as §1

PYR1 K59R L87P = molecular target: T8, PYR1 K59R L87P (Arabidopsis thaliana, UniProt O49686, K59R/L87P)
T8 construct: expressed in transfected cells; host or cells: S. cerevisiae Y190 yeast two-hybrid reporter strain
In short: as §1

PYR1 K59R M158V = molecular target: T9, PYR1 K59R M158V (Arabidopsis thaliana, UniProt O49686, K59R/M158V)
T9 construct: expressed in transfected cells; host or cells: S. cerevisiae Y190 two-hybrid reporter strain
In short: as §1

PYR1 K59R N167G = molecular target: T10, PYR1 K59R N167G (Arabidopsis thaliana, UniProt O49686, K59R/N167G)
T10 construct: expressed in transfected cells; host or cells: S. cerevisiae Y190 two-hybrid reporter strain
T10 sequence (O49686 whole entry K59R/N167G): as the sequence (O49686 whole entry K59R/A160V) above, with V160A, N167G counted along it
T10 sequence (Q9CAJ0 23-511 partner): as the sequence (Q9CAJ0 23-511 partner) above
In short: as §1

PYR1 K59R N167Q = molecular target: T11, PYR1 K59R N167Q (Arabidopsis thaliana, UniProt O49686, K59R/N167Q)
T11 construct: expressed in transfected cells; host or cells: S. cerevisiae Y190 two-hybrid reporter strain
In short: as §1

PYR1 K59R T162Y = molecular target: T12, PYR1 K59R T162Y (Arabidopsis thaliana, UniProt O49686, K59R/T162Y)
T12 construct: expressed in transfected cells; host or cells: S. cerevisiae Y190
In short: as §1

PYR1 K59R V164A = molecular target: T13, PYR1 K59R V164A (Arabidopsis thaliana, UniProt O49686, K59R/V164A)
T13 construct: expressed in transfected cells; host or cells: S. cerevisiae Y190
In short: as §1

PYR1 K59R V164C = molecular target: T14, PYR1 K59R V164C (Arabidopsis thaliana, UniProt O49686, K59R/V164C)
T14 construct: expressed in transfected cells; host or cells: S. cerevisiae Y190
In short: as §1

PYR1 K59R V164G = molecular target: T15, PYR1 K59R V164G (Arabidopsis thaliana, UniProt O49686, K59R/V164G)
T15 construct: expressed in transfected cells; host or cells: S. cerevisiae Y190
T15 sequence (O49686 whole entry K59R/V164G): as the sequence (O49686 whole entry K59R/A160V) above, with V160A, V164G counted along it
T15 sequence (Q9CAJ0 23-511 partner): as the sequence (Q9CAJ0 23-511 partner) above
In short: as §1

PYR1 K59R V164H = molecular target: T16, PYR1 K59R V164H (Arabidopsis thaliana, UniProt O49686, K59R/V164H)
T16 construct: expressed in transfected cells; host or cells: S. cerevisiae Y190
In short: as §1

PYR1 K59R V164L = molecular target: T17, PYR1 K59R V164L (Arabidopsis thaliana, UniProt O49686, K59R/V164L)
T17 construct: expressed in transfected cells; host or cells: S. cerevisiae Y190
T17 sequence (O49686 whole entry K59R/V164L): as the sequence (O49686 whole entry K59R/A160V) above, with V160A, V164L counted along it
T17 sequence (Q9CAJ0 23-511 partner): as the sequence (Q9CAJ0 23-511 partner) above
In short: as §1

PYR1 K59R V164N = molecular target: T18, PYR1 K59R V164N (Arabidopsis thaliana, UniProt O49686, K59R/V164N)
T18 construct: expressed in transfected cells; host or cells: S. cerevisiae Y190 two-hybrid reporter strain
T18 sequence (O49686 whole entry K59R/V164N): as the sequence (O49686 whole entry K59R/A160V) above, with V160A, V164N counted along it
T18 sequence (Q9CAJ0 23-511 partner): as the sequence (Q9CAJ0 23-511 partner) above
In short: as §1

PYR1 K59R V164Q = molecular target: T19, PYR1 K59R V164Q (Arabidopsis thaliana, UniProt O49686, K59R/V164Q)
T19 construct: expressed in transfected cells; host or cells: S. cerevisiae Y190 two-hybrid reporter strain
T19 sequence (O49686 whole entry K59R/V164Q): as the sequence (O49686 whole entry K59R/A160V) above, with V160A, V164Q counted along it
T19 sequence (Q9CAJ0 23-511 partner): as the sequence (Q9CAJ0 23-511 partner) above
In short: as §1

PYR1 K59R V164T = molecular target: T20, PYR1 K59R V164T (Arabidopsis thaliana, UniProt O49686, K59R/V164T)
T20 construct: expressed in transfected cells; host or cells: S. cerevisiae Y190 two-hybrid reporter strain
T20 sequence (O49686 whole entry K59R/V164T): as the sequence (O49686 whole entry K59R/A160V) above, with V160A, V164T counted along it
T20 sequence (Q9CAJ0 23-511 partner): as the sequence (Q9CAJ0 23-511 partner) above
In short: as §1

PYR1 K59R V164Y = molecular target: T21, PYR1 K59R V164Y (Arabidopsis thaliana, UniProt O49686, K59R/V164Y)
T21 construct: expressed in transfected cells; host or cells: S. cerevisiae Y190 two-hybrid reporter strain
In short: as §1

PYR1 K59R F108C = molecular target: T22, PYR1 K59R F108C (Arabidopsis thaliana, UniProt O49686, F108C/K59R)
T22 construct: expressed in transfected cells; host or cells: S. cerevisiae Y190 yeast two-hybrid reporter strain
In short: as §1

PYR1 K59R F108I = molecular target: T23, PYR1 K59R F108I (Arabidopsis thaliana, UniProt O49686, F108I/K59R)
T23 construct: expressed in transfected cells; host or cells: S. cerevisiae Y190 yeast two-hybrid reporter strain
In short: as §1

PYR1 K59R F108N = molecular target: T24, PYR1 K59R F108N (Arabidopsis thaliana, UniProt O49686, F108N/K59R)
T24 construct: expressed in transfected cells; host or cells: S. cerevisiae Y190 yeast two-hybrid reporter strain
In short: as §1

PYR1 K59R F108S = molecular target: T25, PYR1 K59R F108S (Arabidopsis thaliana, UniProt O49686, F108S/K59R)
T25 construct: expressed in transfected cells; host or cells: S. cerevisiae Y190 yeast two-hybrid reporter strain
In short: as §1

PYR1 K59R F159A = molecular target: T26, PYR1 K59R F159A (Arabidopsis thaliana, UniProt O49686, F159A/K59R)
T26 construct: expressed in transfected cells; host or cells: S. cerevisiae Y190 two-hybrid reporter strain
In short: as §1

PYR1 K59R F159C = molecular target: T27, PYR1 K59R F159C (Arabidopsis thaliana, UniProt O49686, F159C/K59R)
T27 construct: expressed in transfected cells; host or cells: S. cerevisiae Y190 two-hybrid reporter strain
In short: as §1

PYR1 K59R F159M = molecular target: T28, PYR1 K59R F159M (Arabidopsis thaliana, UniProt O49686, F159M/K59R)
T28 construct: expressed in transfected cells; host or cells: S. cerevisiae Y190
In short: as §1

Measured: Threshold

N#Cc1c(Cl)cccc1Cl [Dichlobenil, dichlobenil]
not listed: PYR1 K59R F108C | PYR1 K59R F108I | PYR1 K59R F108N | PYR1 K59R F108S | PYR1 K59R F159A | PYR1 K59R F159C | PYR1 K59R F159M
100 µM: all other assays above

C#CCOc1ccc(CCNC(=O)C(OCC#C)c2ccc(Cl)cc2)cc1OC (stereo not shown) [Mandipropamid, mandipropamid]
100 µM: PYR1 K59R F108C | PYR1 K59R F108I | PYR1 K59R F108N | PYR1 K59R F108S | PYR1 K59R F159A | PYR1 K59R F159C | PYR1 K59R F159M
